According to patent publication US20070059321A1, “Methods of reducing minimal inhibitory concentration of antibiotics and compositions resulting therefrom” (The Hong Kong Polytechnic University, priority 2005, published 2007):
Read-outs that look alike come from different tables or passages of the source.

Columns and labels:
Type in all cases: cell-based
[1] = tested on: MSSA1 (methicillin-sensitive Staphylococcus aureus clinical isolate); test: Broth microdilution MIC (NCCLS 2000), strain MSSA1; settings: 18 h
Experimental: (§1) Antimicrobial susceptibility testing was performed by broth assay followed standard laboratory procedures (the National Committee for Clinical Laboratory Standards (NCCLS) protocol 2000). The MIC in this assay was defined as the lowest concentration of the antibiotic under test that inhibited the visible growth of the microorganism under study.
(§2) There were eight strains of Staphylococcus aureus tested. All were from clinical isolates as they represent strains actually present in the community and so of clinical relevance. Three strains were sensitive to methicillin (MSSA), and five strains were resistant to methicillin (MRSA).
(§3) The MIC for each of the eight strains was determined for penicillin G and for vancomycin using dilutions made from the stock preparations purchased (both from Sigma). […]
(§4) The antimicrobial susceptibility test was performed in a 96-well microtitre plate and following standard National Committee for Clinical Laboratory Standards (NCCLS) protocol (NCCLS, 2000). […] Minimal inhibitory concentration (MIC) was determined by the microdilution method in Mueller-Hinton broth (Oxoid, Hampshire, UK), according to the standards of the NCCLS (2000). […]
(§5) Each bacterial strain was plated overnight on Mueller-Hinton agar and then transferred to a broth 3 hours before the assay was performed. […] Microplates were examined 18 hours later and determined for MIC. […]

[2] = tested on: MRSA1 (methicillin-resistant Staphylococcus aureus clinical isolate); test: Broth microdilution MIC (NCCLS 2000), strain MRSA1; settings: 18 h
Experimental: as §1, §2, §3, §4, §5

[3] = tested on: MRSA3 (methicillin-resistant Staphylococcus aureus clinical isolate); test: Broth microdilution MIC (NCCLS 2000), strain MRSA3; settings: 18 h
Experimental: as §1, §2, §3, §4, §5

[4] = tested on: MRSA4 (methicillin-resistant Staphylococcus aureus clinical isolate); test: Broth microdilution MIC (NCCLS 2000), strain MRSA4; settings: 18 h
Experimental: as §1, §2, §3, §4, §5

[5] = tested on: eight strains of Staphylococcus aureus (MSSA and MRSA clinical isolates); test: Broth microdilution MIC (NCCLS 2000), summary over all tested strains; settings: read-out: MIC concentrations of the different strains
Experimental: as §1, §2, §3, §4, §5

[6] = tested on: MRSA2 (methicillin-resistant Staphylococcus aureus clinical isolate); test: Broth microdilution MIC (NCCLS 2000), strain MRSA2; settings: 18 h
Experimental: as §1, §2, §3, §4, §5

[7] = tested on: MSSA3 (methicillin-sensitive Staphylococcus aureus clinical isolate); test: Broth microdilution MIC (NCCLS 2000), strain MSSA3; settings: 18 h
Experimental: as §1, §2, §3, §4, §5

[8] = tested on: MRSA5 (methicillin-resistant Staphylococcus aureus clinical isolate); test: Broth microdilution MIC (NCCLS 2000), strain MRSA5; settings: 18 h
Experimental: as §1, §2, §3, §4, §5

[9] = tested on: MSSA2 (methicillin-sensitive Staphylococcus aureus clinical isolate); test: Broth microdilution MIC (NCCLS 2000), strain MSSA2; settings: 18 h
Experimental: as §1, §2, §3, §4, §5

Row | Structure (SMILES) | MIC ([1]; strain MSSA1, extract where present 1% w/v final, 37° C., Mueller-Hinton broth, read-out: MIC) [µg/mL] | MIC ([2]; strain MRSA1, extract where present 1% w/v final, 37° C., Mueller-Hinton broth, read-out: MIC) [µg/mL] | MIC ([3]; strain MRSA3, extract where present 1% w/v final, 37° C., Mueller-Hinton broth, read-out: MIC) [µg/mL] | MIC ([4]; strain MRSA4, extract where present 1% w/v final, 37° C., Mueller-Hinton broth, read-out: MIC) [µg/mL] | MIC ([5]; antibiotic alone, range over the eight MSSA and MRSA strains) [µg/mL] | MIC ([6]; strain MRSA2, extract where present 1% w/v final, 37° C., Mueller-Hinton broth, read-out: MIC) [µg/mL] | MIC ([7]; strain MSSA3, extract where present 1% w/v final, 37° C., Mueller-Hinton broth, read-out: MIC) [µg/mL] | MIC ([8]; strain MRSA5, extract where present 1% w/v final, 37° C., Mueller-Hinton broth, read-out: MIC) [µg/mL] | MIC ([9]; strain MSSA2, extract where present 1% w/v final, 37° C., Mueller-Hinton broth, read-out: MIC) [µg/mL] | MIC [1] [µg/mL] | MIC [2] [µg/mL] | MIC [3] [µg/mL] | MIC [4] [µg/mL] | MIC [5] [µg/mL] | MIC [6] [µg/mL] | MIC [7] [µg/mL] | MIC [8] [µg/mL] | MIC [9] [µg/mL]
1 | CC1(C)S[C@@H]2[C@H](NC(=O)Cc3ccccc3)C(=O)N2[C@H]1C(=O)O [Pen, penicillin G] | 64 | 512 | 1020 | 256 | 8 to 1020 | 256 | 8 | 512 | 32 |  |  |  |  |  |  |  |  | 
2 | CN[C@H](CC(C)C)C(=O)N[C@H]1C(=O)N[C@@H](CC(N)=O)C(=O)N[C@H]2C(=O)N[C@H]3C(=O)N[C@H](C(=O)N[C@H](C(=O)O)c4cc(O)cc(O)c4-c4cc3ccc4O)[C@H](O)c3ccc(c(Cl)c3)Oc3cc2cc(c3O[C@@H]2O[C@H](CO)[C@@H](O)[C@H](O)[C@H]2O[C@H]2C[C@](C)(N)[C@H](O)[C@H](C)O2)Oc2ccc(cc2Cl)[C@H]1O [Van, vancomycin] |  |  |  |  |  |  |  |  |  | 0.5 | 0.5 | 1 | 0.5 | 0.5 to 1 | 1 | 0.5 | 0.5 | 0.5
